Like-named read-outs stand apart in the source and are kept apart here.
Target: T1, human calpain 1 protease (HCAN1) (Homo sapiens, UniProt P07384)
T1 construct: gene CAPN1; with Calpain small subunit 1
T1 sequence (P07384 2-714): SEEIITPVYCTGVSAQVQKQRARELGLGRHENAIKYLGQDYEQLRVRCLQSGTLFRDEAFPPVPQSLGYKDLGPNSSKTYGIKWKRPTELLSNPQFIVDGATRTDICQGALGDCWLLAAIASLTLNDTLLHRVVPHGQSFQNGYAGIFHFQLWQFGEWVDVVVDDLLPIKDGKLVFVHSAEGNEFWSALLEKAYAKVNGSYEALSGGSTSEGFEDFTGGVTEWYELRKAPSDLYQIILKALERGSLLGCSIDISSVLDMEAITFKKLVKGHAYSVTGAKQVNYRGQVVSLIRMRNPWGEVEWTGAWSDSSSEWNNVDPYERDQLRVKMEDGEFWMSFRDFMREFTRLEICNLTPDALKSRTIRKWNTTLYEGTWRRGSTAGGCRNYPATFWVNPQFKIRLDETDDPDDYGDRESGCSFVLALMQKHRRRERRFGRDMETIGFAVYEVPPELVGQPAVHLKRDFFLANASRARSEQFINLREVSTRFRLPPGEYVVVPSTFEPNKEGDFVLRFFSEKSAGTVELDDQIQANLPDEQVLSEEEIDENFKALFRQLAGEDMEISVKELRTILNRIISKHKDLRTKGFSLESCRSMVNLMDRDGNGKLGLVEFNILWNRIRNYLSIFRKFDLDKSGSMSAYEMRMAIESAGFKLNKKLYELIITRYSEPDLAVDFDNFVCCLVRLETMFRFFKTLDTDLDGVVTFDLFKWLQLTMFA
T1 sequence (P04632 1-268 partner): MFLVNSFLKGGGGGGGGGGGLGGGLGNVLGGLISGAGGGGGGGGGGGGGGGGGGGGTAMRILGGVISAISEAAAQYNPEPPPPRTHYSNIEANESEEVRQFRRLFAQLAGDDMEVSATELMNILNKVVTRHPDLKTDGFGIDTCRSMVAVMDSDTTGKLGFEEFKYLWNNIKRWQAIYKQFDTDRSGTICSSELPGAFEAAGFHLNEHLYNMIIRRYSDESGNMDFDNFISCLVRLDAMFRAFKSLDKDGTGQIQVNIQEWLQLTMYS
Experiment: fluorescence calpain activity assay kit (Ac-LLY-AFC)
Type: biochemical

| IC50 | IC50 (Ac-LLY-AFC substrate, 37 °C, 1 h, covalent (Michael addition to Cys115)) | Compound |
| --- | --- | --- |
| > 5000 nM | – | CCCCCCCCCC(=O)N[C@@H](CO)C(=O)N[C@H](C(=O)N[C@@H](CO)[C@@H](O)CC(=O)N[C@H](C(=O)N[C@@H]1CCC(=O)N[C@@H](C(C)C)C(=O)N(C)[C@@H](Cc2ccc(O)cc2)C(=O)OC1)C(C)C)C(C)C [compound 3, 3] |
| – | 3.4 ± 1.2 nM | Thalassospiramide C [compound 4] |

Source: PMC4350077, “Mechanism of Action of Thalassospiramides, A New Class of Calpain Inhibitors” (Scientific Reports, 2015)
